Active and inactive are the calls of the source. No cut-off for these calls is given here.
Tests used:
Avena sativa [1] = experiment: Auxin activity in Avena sativa cv. Victory-1 assessed as coleoptile elongation; assay type: functional, organism-based
Avena sativa [2] = experiment: Auxin activity in Avena sativa cv. Victory-1 assessed as increase of auxin-induced growth at 10^-5 M; assay type: functional
Avena sativa [3] = experiment: Auxin activity in Avena sativa cv. Victory-1 assessed as coleoptile elongation at 3 x 10^-6 M; assay type: functional, organism-based
Avena sativa [4] = experiment: Antiauxin activity in Avena sativa cv. Victory-1 assessed as auxin-induced growth inhibition at 10^-5 to 10^-4 M; assay type: functional, organism-based
Avena sativa [5] = experiment: Antiauxin activity in Avena sativa cv. Victory-1 assessed as growth inhibition at 1 x 10^-4 M; assay type: functional, organism-based
Avena sativa [6] = experiment: Antiauxin activity in Avena sativa cv. Victory-1 assessed as growth inhibition; assay type: functional, organism-based
Avena sativa [7] = experiment: Antiauxin activity in Avena sativa cv. Victory-1 assessed as auxin-induced growth inhibition at 3 x 10^-5 M; assay type: functional, organism-based
Avena sativa [8] = experiment: Auxin activity in Avena sativa cv. Victory-1 assessed as increase of auxin-induced growth at 5.6 x 10^-5 M; assay type: functional, organism-based

SMILES | Activity (Avena sativa [1]) | Activity (Avena sativa [3]) | growth inhibition (GI) (Avena sativa [5]) | growth inhibition (GI) (Avena sativa [6]) | also measured
CC(C)(C(=O)O)c1c[nH]c2c(F)cc(F)cc12 | Active | Active | Active |  | Activity (Avena sativa [2]): 80%; growth inhibition (GI) (Avena sativa [4]): Active
CC(C)(C(=O)O)c1c[nH]c2ccccc12 |  |  |  | inactive | 
O=C(O)Cc1c[nH]c2c(F)cc(F)cc12 |  |  |  | Active | 
CC(C)(C(=O)O)c1c[nH]c2c(Cl)cc(Cl)cc12 | inactive |  |  |  | 
CC(C(=O)O)c1c[nH]c2c(F)cc(F)cc12 (centres undefined) | Active | Active | Active |  | 
O=C(O)Cc1c[nH]c2ccccc12 | Active |  |  |  | growth inhibition (GI) (Avena sativa [7]): Active; Activity (Avena sativa [8]): inactive
